Data from PubChem BioAssay (NCI).
“And” between values parts separate entries of the source, which are not always exact repeats. Equal entries are not always repeated.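 Where inhibition never reached the appropriate level, the endpoint shown equals the highest concentration tested. Otherwise, values were interpolated linearly from a five-concentration, 48-hour dose response in 96-well plates. GI50 marks 50% less growth. TGI: total growth inhibition.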

Tests used:
Experiment in all cases: DTP human tumour cell line panel, 48 h
HCT-116 colon = test system: HCT-116 colon
M14 melanoma = test system: M14 melanoma
NCI-H23 lung = test system: NCI-H23 lung
NCI-H460 lung = test system: NCI-H460 lung
NCI-H522 lung = test system: NCI-H522 lung
OVCAR-8 ovarian = test system: OVCAR-8 ovarian
RPMI-8226 leukemia = test system: RPMI-8226 leukemia
SK-MEL-28 melanoma = test system: SK-MEL-28 melanoma
SK-OV-3 ovarian = test system: SK-OV-3 ovarian
SW-620 colon = test system: SW-620 colon

| Compound | GI50 (HCT-116 colon) | TGI (HCT-116 colon) | GI50 (M14 melanoma) | TGI (M14 melanoma) | GI50 (NCI-H23 lung) | TGI (NCI-H23 lung) | GI50 (NCI-H460 lung) | TGI (NCI-H460 lung) | GI50 (NCI-H522 lung) | TGI (NCI-H522 lung) | GI50 (OVCAR-8 ovarian) | TGI (OVCAR-8 ovarian) | GI50 (RPMI-8226 leukemia) | TGI (RPMI-8226 leukemia) | GI50 (SK-MEL-28 melanoma) | TGI (SK-MEL-28 melanoma) | GI50 (SK-OV-3 ovarian) | TGI (SK-OV-3 ovarian) | GI50 (SW-620 colon) | TGI (SW-620 colon) |
| --- | --- | --- | --- | --- | --- | --- | --- | --- | --- | --- | --- | --- | --- | --- | --- | --- | --- | --- | --- | --- |
| COc1ccc2c(c1)C(=O)c1c-2n(CCCN)c(=O)c2ccccc12 | < 0.0115 µM | 0.148 µM | 0.0951 µM | 1.53 µM | 0.0497 µM | 1.02 µM | < 10 nM | 0.0402 µM | 0.0123 µM | 0.505 µM | 11.3 nM | 0.162 µM | < 0.0114 µM | 0.0316 µM | 0.459 µM | 1.89 µM | < 0.0202 µM | 0.0652 µM | < 0.01 µM | 1.14 µM |
| COC(=O)[C@@H](NC(=O)NC(=O)NC(=O)CI)C(C)C | 12.2 µM | 24.6 µM | 3.34 µM | 13.1 µM | 16.1 µM | 33.8 µM | 18900 nM | 38.2 µM | 1.69 µM | 3.31 µM | 18800 nM | 41.4 µM | 4.83 µM | 26.1 µM | 1.88 µM | 3.85 µM | 18.3 µM | 33 µM | 2.04 µM | 4.19 µM |
| C=C(CNC(=O)Nc1ccc(-c2ccccc2)cc1)c1ccc(C(=O)Nc2ccccc2N)cc1 | > 100 µM | > 100 µM | 90.9 µM | > 100 µM | 85.3 µM | > 100 µM | > 100000 nM | > 100 µM | 15 µM | 99 µM | 58900 nM | > 100 µM | 20.4 µM | > 100 µM | 48.3 µM | > 100 µM | 25.9 µM | 74.8 µM | > 100 µM | > 100 µM |
| CN1CCN(c2ccc(C(=O)Nc3n[nH]c4ccc(Cc5cc(F)cc(F)c5)cc34)c(NC3CCOCC3)c2)CC1 | 1.53 µM and 1.36 µM | 3.27 µM and 2.73 µM | 1.58 µM and 1.69 µM | 3.2 µM and 3.4 µM | 2.63 µM and 1.61 µM | > 10 µM and 3.54 µM | 2370 nM and 1570 nM | 9.27 µM and 3.09 µM | 1.6 µM and 1.7 µM | 3.36 µM and 3.24 µM | 1730 nM | > 10 µM and 3.48 µM | 2.3 µM and 1.86 µM | 7.02 µM and 4.39 µM | 1.6 µM and 1.58 µM | 3.15 µM and 2.95 µM | 6.65 µM and 1.7 µM | > 10 µM and 3.19 µM | 1.32 µM and 1.33 µM | 3.44 µM and 2.76 µM |
| CCCCCCCCCCCOC(=S)NC(C)C | – | 31.3 µM | – | 60.6 µM | – | 38.1 µM | – | 50.7 µM | – | 39.7 µM | – | 31.7 µM | – | 33.2 µM | – | 56.6 µM | – | 49.6 µM | – | 30.2 µM |
| COc1ccc(/C(=N/NC(N)=O)C2(O)C(=O)Nc3ccc([N+](=O)[O-])cc32)cc1 (centres undefined) | – | 36.1 µM | – | 31.1 µM | – | 31.6 µM | – | 39.4 µM | – | 41.9 µM | – | 47.7 µM | – | 74.1 µM | – | 36.9 µM | – | > 100 µM | – | 50.8 µM |
| C=C1C(=O)O[C@H]2[C@H]1CC/C(CNC(=O)/C=C/c1ccc(Br)cc1)=C\CC[C@@]1(C)O[C@@H]21 | 0.667 µM | 1.95 µM | 1.11 µM | 2.69 µM | 1.41 µM | 3.05 µM | 1630 nM | 3.3 µM | 0.711 µM | 2.3 µM | 1670 nM | 5.75 µM | 0.448 µM | 3.26 µM | 1.34 µM | 2.7 µM | 3.89 µM | 12.5 µM | 0.444 µM | 1.77 µM |
| Nc1ccn(C2OC(CO)C(O)C2F)c(=O)n1 (centres undefined) | > 5000 µM | > 5000 µM | > 5000 µM | > 5000 µM | > 5000 µM | > 5000 µM | 810000 nM and 773000 nM | > 5000 µM | 3990 µM | > 5000 µM | 57100 nM | – | > 5000 µM | > 5000 µM | > 5000 µM | > 5000 µM | > 5000 µM | > 5000 µM | > 5000 µM | > 5000 µM |
| COc1cc(/C(Cl)=C/C=C/C(=O)c2c(C)[n+]([O-])c3ccc(Cl)cc3[n+]2[O-])cc(OC)c1OC | 2.12 µM | 8.98 µM | 3.68 µM | 40.4 µM | 9.36 µM | 44.6 µM | 11500 nM | > 50 µM | 1.38 µM | 4.23 µM | 3090 nM | > 50 µM | 2.18 µM | > 50 µM | 6.85 µM | 49.4 µM | 7.4 µM | 31.5 µM | 2.24 µM | 9.78 µM |
| Cc1c2cnccc2c(C)c2c1c1cc(C3OCCCO3)ccc1n2C | 0.0472 µM | 1.05 µM | 0.317 µM | 1.16 µM | 0.215 µM | 1.21 µM | 293 nM | 1.15 µM | 0.466 µM | 2.48 µM | 139 nM | 1.95 µM | 0.282 µM | 1.28 µM | 0.459 µM | 1.68 µM | 0.325 µM | 1.76 µM | 0.205 µM | 1.64 µM |
| CN(C)CCCOc1ccccc1NC1=C(Cl)C(=O)C(Nc2ccccc2OCCCN(C)C)=C(Cl)C1=O | 0.183 µM | 0.356 µM | 1.6 µM | 3.16 µM | 0.57 µM | 1.38 µM | 1320 nM | 2.85 µM | 0.17 µM | 0.383 µM | 301 nM | 0.9 µM | 2.01 µM | 5.07 µM | 1.72 µM | 3.13 µM | 1.66 µM | 3.02 µM | 0.207 µM | 0.415 µM |
| Cc1c2cc[nH]c(=O)c2c(C)c2c1[nH]c1cc(OCCN3CCN(C)CC3)ccc12 | 0.339 µM | 2.09 µM | 1.2 µM | 2.94 µM | 0.833 µM | 3.67 µM | 418 nM | 1.84 µM | 0.718 µM | 2.76 µM | 457 nM | 6.08 µM | 1.63 µM | 5 µM | 1.5 µM | 2.98 µM | 0.614 µM | 5.9 µM | 0.381 µM | 2.48 µM |
| CC[P+](C)(Cc1ccccc1)c1ccccc1 (centres undefined) | – | > 100 µM | – | > 100 µM | – | > 100 µM | – | > 100 µM | – | > 100 µM | – | > 100 µM | – | > 100 µM | – | > 100 µM | – | > 100 µM | – | > 100 µM |
| Cn1cc(-c2nonc2-c2c[nH]c3ccccc23)c2ccccc21 | 0.404 µM | 10.5 µM | 0.317 µM | 12 µM | 0.85 µM | 19.5 µM | 375 nM | 7.78 µM | 0.366 µM | 9.79 µM | 545 nM | 14.7 µM | 0.369 µM | 5.96 µM | 1.45 µM | 18.1 µM | 0.563 µM | 18.4 µM | 0.335 µM | 15.6 µM |
| Cc1[nH]ncc1-c1cc2nc(C3CC4CCN3CC4)[nH]c(=O)c2s1 (centres undefined) | 1.16 µM | > 100 µM | 4.49 µM | 83.5 µM | 3.82 µM | > 100 µM | 2440 nM | > 100 µM | 2.75 µM | 39.4 µM | 3200 nM | > 100 µM | 18.2 µM | > 100 µM | 4.94 µM | > 100 µM | 14.5 µM | > 100 µM | 2.65 µM | > 100 µM |
